Results: patent publication US4156016A, “Indole compounds and process for their preparation” (Hoffmann-La Roche Inc., priority 1977, dated 1979)
Read-outs that look alike come from different tables or passages of the source.

Columns and labels:
[1] = test system: human blood-platelet aggregation; experiment: Inhibition of human blood-platelet aggregation (general statement)
[2] = Gastric ulcer induction (rats); parameters: species or system male Wistar rats; settings: rat, in vivo, po
Experimental: The test is a modification of that described by Brodie et al., Gastroenterology, 53, pages 604-610 (1967). Male Wistar rats (Royal Hart Laboratories) were deprived of food for 18 hours prior to testing. Tap water was permitted ad libitum. Test compounds were administered orally four hours to autopsy. The rats were sacrificed under ethyl ether anesthesia, opened along the ventral midline and the stomachs removed. The stomach was divided along the lesser curvature, everted, rinsed in saline, and examined for the presence of focal hemorrhage. Ulcers were rated on an all or none basis for incidence and, in addition, each stomach is graded for severity of ulcers formed. Ulcer scores: 0=none, 1=trace, 2=mild, 3=moderate, and 4=severe. The results of the ulcer scores obtained were subjected to statistical analysis by the student `t` test.

[3] = Ulcerogenicity (general statement)
[4] = Central and peripheral pharmacological activity (statement)
ADP induced aggregation = experiment: Inhibition of ADP-induced platelet aggregation (second wave) in human platelet-rich plasma; assay type: cell-based; settings: for inhibition at 2.5 µM / inhibition at 5 µM / inhibition at 10 µM / inhibition at 20 µM / inhibition at 50 µM: Homo sapiens, Platelet, read-out: Percent Inhibition
Experimental: Venous blood was collected from human volunteers in siliconized 20 ml. […] Platelet rich plasma (PRP) was separated from the red blood cells by centrifugation at 180×g for 15 minutes at room temperature. Platelet poor plasma (PPP) was prepared by centrifuging PRP at 1000×g for 2 minutes.
Techniques established by Born et al., J. Physiol. […] PRP (1 ml.) was added to a siliconized cuvette containing a siliconized stirring bar and placed in a densitometer maintained at 37° C. and stirred at 1000 RPM. Various concentrations of test compounds were added in 50 μl of saline and incubated with PRP for 5 minutes. Aggregation was initiated by the addition of sufficient concentrations of ADP (Sigma Chemical Co.), epinephrine HCl (Parke, Davis & Co., Detroit, Michigan), or human mammary gland collagen (obtained from Roosevelt Hospital, N.Y.) to give about 60% of maximum aggregation response. The light transmission through PPP was used to determine maximum response. The percent inhibition of aggregation caused by the drug was calculated from the strip chart recordings at the point of maximum collagen response.

serum PGF2α = experiment: Inhibition of prostaglandin formation: serum PGF2α by radioimmunoassay (rats); assay type: in vivo, male rats; settings: for ED50: Rattus norvegicus, 1 h, rats
Acute toxicity in mice = settings: mouse, in vivo
Experimental: CF-IS mice of both sexes weighing 17-25 grams were used. The compounds were ground in a mortar and suspended in 5% gum acacia for oral or intraperitoneal administration. Eight to ten mice were used per dose level. […] The LD50 was calculated by the method of Miller et al., Proc. Soc. Exp. Biol. Med., 57, pages 261-264 (1944).

prostaglandin formation = experiment: Inhibition of prostaglandin formation (general statement)

N#Cc1[nH]c2ccc(C(O)(C(F)(F)F)C(F)(F)F)cc2c1-c1ccccc1 [nitrile, 3-Phenyl-5-[2,2,2-trifluoro-1-hydroxy-1-(trifluoromethyl)ethyl]indole-2-carbonitrile]
inhibition of human blood-platelet aggregation (in words) [1]: inhibit prostaglandin formation and human blood-platelet aggregation | TD50 at 4 h [2]: > 250 mg/kg | ulcerogenicity (in words) [3]: non-ulcerogenic | central and peripheral pharmacological activity (in words) [4]: devoid of central and peripheral pharmacological activity | Δ light transmission (ADP induced aggregation; 2.5 μM, Expt. I): 60 units | Δ light transmission (ADP induced aggregation; 2.5 μM, Expt. II): 54 units | Δ light transmission (ADP induced aggregation; 5 μM, Expt. I): 50 units | Δ light transmission (ADP induced aggregation; 5 μM, Expt. II): 44 units | Δ light transmission (ADP induced aggregation; 10 μM, Expt. I): 11 units | Δ light transmission (ADP induced aggregation; 10 μM, Expt. II): 14 units | Δ light transmission (ADP induced aggregation; 20 μM, Expt. I): 0 units | Δ light transmission (ADP induced aggregation; 20 μM, Expt. II): 0 units | Δ light transmission (ADP induced aggregation; 50 μM, Expt. I): 0 units | Δ light transmission (ADP induced aggregation; 50 μM, Expt. II): 0 units | inhibition at 2.5 µM (ADP induced aggregation; 2.5 μM, Expt. I): 0% | inhibition at 2.5 µM (ADP induced aggregation; 2.5 μM, Expt. II): 1.8% | inhibition at 5 µM (ADP induced aggregation; 5 μM, Expt. I): 16.7% | inhibition at 5 µM (ADP induced aggregation; 5 μM, Expt. II): 20% | inhibition at 10 µM (ADP induced aggregation; 10 μM, Expt. I): 18.6% | inhibition at 10 µM (ADP induced aggregation; 10 μM, Expt. II): 74.5% | inhibition at 20 µM (ADP induced aggregation; 20 μM, Expt. I): 100% | inhibition at 20 µM (ADP induced aggregation; 20 μM, Expt. II): 100% | inhibition at 50 µM (ADP induced aggregation; 50 μM, Expt. I): 100% | inhibition at 50 µM (ADP induced aggregation; 50 μM, Expt. II): 100% | IC50 (ADP induced aggregation; incubation in human citrated platelet-rich plasma): 7 µM | serum PGF2α (serum PGF2α; 1 mg/kg i.p., ± SE): 27 ± 2.9 ng/mL | serum PGF2α (serum PGF2α; 1 mg/kg p.o., ± SE): 28 ± 4.6 ng/mL | serum PGF2α (serum PGF2α; 3 mg/kg i.p., ± SE, p <0.05): 18 ± 1.5 ng/mL | serum PGF2α (serum PGF2α; 3 mg/kg p.o., ± SE): 19 ± 4.2 ng/mL | serum PGF2α (serum PGF2α; 10 mg/kg i.p., ± SE, p <0.01): 18 ± 2.9 ng/mL | serum PGF2α (serum PGF2α; 10 mg/kg p.o., ± SE, p <0.001): 12 ± 2.4 ng/mL | serum PGF2α (serum PGF2α; 30 mg/kg i.p., ± SE, p <0.001): 2 ± 1.6 ng/mL | serum PGF2α (serum PGF2α; 30 mg/kg p.o.): 0 ng/mL | serum PGF2α (serum PGF2α; 100 mg/kg i.p.): 0 ng/mL | serum PGF2α (serum PGF2α; 100 mg/kg p.o.): 0 ng/mL | ED50 (serum PGF2α; ip): 15 mg/kg | ED50 (serum PGF2α; po): 10 mg/kg | LD50 at 120 h (Acute toxicity in mice; ip): 750 mg/kg | LD50 at 120 h (Acute toxicity in mice; po): > 1000 mg/kg | inhibition of prostaglandin formation (in words) (prostaglandin formation): inhibit prostaglandin formation
